The test system of one series is HT-29 colon cancer cells. Description: In-vitro cytotoxicity test (CCK-8). It counts as cell-based. As to the method: (§1) In-vitro cytotoxicity test: HT-29 colon cancer cells, HepG-2 liver cancer cells, SMMC7721 liver cancer cells, SKOV3 ovarian cancer cells and MCF-7 breast cancer cells that were growing at the logarithmic phase were collected. The concentration of cell suspension was adjusted, and 100 uL of the cell suspension was added per well, then the cells were plated so that the density of cells to be tested was 4000 cells/well (the marginal wells being filled with a sterile PBS). Incubation was performed for 24 hours at 5% CO2 and 37° C. Then the medium was discarded, and pectin-adriamycin or adriamycin with a concentration gradient (containing 0.125, 0.25, 0.5, 1.0, 2.0, 4.0, 8.0 and 16.0 ug/mL of […]) was added, and three repetitions were set for each concentration. Then incubation was performed for 48 hours in an incubator at 5% CO2 and 37° C. 10 μl of a CCK-8 solution was added to each well to continue cultivation for 2 hours. The absorbance of each well at 450 nm was measured with an Enzyme-labelled meter, and IC50 values of pectin-adriamycin and adriamycin for various cancer cells were calculated.

Series [1] has as its system HepG-2 liver cancer cells. Description: In-vitro cytotoxicity test (CCK-8). It counts as cell-based. On the procedure:
as §1

Series [2] deals with SMMC7721 liver cancer cells. Description: In-vitro cytotoxicity test (CCK-8). In kind it is cell-based. As to the method: as §1
The test system of series [3] is MCF-7 breast cancer cells. Description: In-vitro cytotoxicity test (CCK-8). In kind it is cell-based. On the procedure:
as §1

The test system of series [4] is SKOV3 ovarian cancer cells. Description: In-vitro cytotoxicity test (CCK-8). In kind it is cell-based. On the procedure: as §1
Series [5] concerns H22 liver cancer. Description: In-vivo pharmacodynamic test, tumor-bearing mice. The settings on record: 5 mg/kg adriamycin equivalent, intravenously injected 4 times. As to the method:
(§2) In-vivo pharmacodynamic test: H22 liver cancer cells, 4T1 breast cancer cells, EMT6 breast cancer cells and HT-29 colon cancer cells that were growing at logarithmic phase were collected, and the concentration of the cell suspension was adjusted to 3×10^7 cells/mL. The cells were subcutaneously inoculated into right upper extremity of Balb/c mice or nude mice with 0.1 mL per mouse (containing about 3×10^6 cells). After the average tumor volume of the inoculated mice was reached 100 mm^3, the tumor-bearing mice were randomly divided into a negative control group (with 0.9% sodium chloride injection), an adriamycin control group (5 mg/kg) and a pectin-adriamycin experimental group (the equivalent of adriamycin being 5 mg/kg) respectively, 8 mice for each group, the above various drugs were intravenously injected for 4 times in total. The tumor volume change and the body weights were recorded, and the equation for volume calculation was as follows: volume=(length×width^2)/2.

In series [6] the test system is 4T1 breast cancer. Description: In-vivo pharmacodynamic test, tumor-bearing mice. The settings on record: 4T1 breast cancer tumor-bearing mice, 5 mg/kg adriamycin equivalent, intravenously injected 4 times. As to the method:
as §2

A further series has as its system EMT-6 breast cancer. Briefly: In-vivo pharmacodynamic test, tumor-bearing mice. The settings on record: EMT-6 breast cancer tumor-bearing mice, 5 mg/kg adriamycin equivalent, intravenously injected 4 times. On the procedure: as §2
Series [7] is described as follows: Body weight and death of tumor-bearing mice in the in-vivo pharmacodynamic test. As to the method: as §2
A short description of the next series: Solubility in water. In kind it is physicochemical.
For a further series, the system named is HT-29 colon cancer. Briefly: In-vivo pharmacodynamic test, tumor-bearing mice. The settings on record: HT-29 colon cancer tumor-bearing mice, 5 mg/kg adriamycin equivalent, intravenously injected 4 times. On the procedure:
as §2

Series [8] has as its system H22 liver cancer. Description: Comparison with the control compound, H22 liver cancer mice tumor model. It counts as in vivo.
The subject of series [9] is 4T1 breast cancer. Description: Comparison with the control compound, 4T1 breast cancer mice tumor model. It counts as in vivo.
Setting [10] is: tumor-bearing mice, 5 mg/kg adriamycin equivalent, i.v. 4 times.
Where [11] appears, read: Example 16, conjugate intravenous, control intraperitoneal.

In brackets after ≈: the same amount, converted by molar mass.

As a reminder, the IC50 is the concentration at which inhibition is half-maximal. A low value points to higher potency. On to `COc1cccc2c1C(=O)c1c(O)c3c(c(O)c1C2=O)C[C@@](O)(C(=O)CO)C[C@@H]3O[C@H]1C[C@H](N)[C@H](O)[C@H](C)O1` [adriamycin, reference compound], for which the IC50 in the series with HT-29 colon cancer cells (Homo sapiens, HT-29, 48 hours incubation) came to 10.9 µg/mL (≈ 20.1 µM); in series [1] (Homo sapiens, HepG2, 48 hours incubation), 4.38 µg/mL (≈ 8.05 µM); in series [2] (Homo sapiens, SMMC-7721, 48 hours incubation), 2.62 µg/mL (≈ 4.82 µM); in [3] (Homo sapiens, MCF7, 48 hours incubation) it was 3.97 µg/mL (≈ 7.3 µM); in series [4] (Homo sapiens, SK-OV-3, 48 hours incubation) it was 5.7 µg/mL (≈ 10.5 µM). For the same compound, the “tumor growth inhibition rate” value is reported as 53.42% in the series with H22 liver cancer [5], 50.61% with 4T1 breast cancer [6] and 56.95% in the series on EMT-6 breast cancer. Besides, the body weight decrease entry in series [7] (mouse, in vivo, iv, 5 mg/kg) is “more than 15%”. In addition, the “body weights of the mice” value in series [7] (mouse, in vivo, iv, 5 mg/kg) is reported as “significantly decreased”. The death of mice entry in series [7] (setting [10]) is “minormice died”.

Consider “modified pectin-PEG8-VAPABC-adriamycin [pectin-adriamycin conjugate]”, for which, in the series with HT-29 colon cancer cells (48 hours incubation), the “IC50, HT-29 colon cancer” value turned out to be 10.74 µg/mL. The “IC50, HepG-2 liver cancer” value in series [1] (48 hours incubation) was 4.11 µg/mL. The “IC50, SMMC7721 liver cancer” value in [2] (48 hours incubation) worked out at 2.31 µg/mL. For the same compound, in series [3] (48 hours incubation), the “IC50, MCF-7 breast cancer” value stood at 3.961 µg/mL. Also, in series [4] (48 hours incubation), the “IC50, SKOV3 ovarian cancer” value came to 5.488 µg/mL. Also, the Solubility in water in “Solubility in water” was 10 mg/ml, solubility being. Moreover, the “tumor growth inhibition rate” value is 72.98% with H22 liver cancer [5], 78.1% in the series with 4T1 breast cancer [6] and 71.68% with EMT-6 breast cancer. For the same compound, the curative effect result with HT-29 colon cancer is reported as “better than that of the adriamycin control”. Also, the “body weights of the mice” value in series [7] (setting [10]) is on record as “not significantly decreased”. For the same compound, in series [7] (setting [10]), the death of mice entry is given as “no a mouse died”. Besides, the tumor inhibition rate with H22 liver cancer [8] (setting [11]) was determined as 70.83%; with 4T1 breast cancer [9] (setting [11]) it was 76.20%. Further, the inhibition time result in the series with H22 liver cancer [8] (same dosage, versus control compound (FIG. 8)) is listed as “longer”; with 4T1 breast cancer [9] (same dosage, versus control compound (FIG. 9)), “longer”.
